The record followed here is patent US9012491B2, “Heterocyclic boronic acid ester derivatives and therapeutic uses thereof” (priority 2011, dated 2015).

Like-named read-outs stand apart in the source and are kept apart here.

What all share (format): cell-based
For test [1], the system named is KPX1001 (OXA-2, class D). Description: Tigemonam potentiation (MPC@4) by β-lactamase inhibitors. The note with it: tigemonam at 4 μg/mL, strain KPX1001, OXA-2, class D. The method, then:
(§1) Selected β-lactamase inhibitors were tested for their ability to potentiate the monobactam tigemonam. […] Tigemonam is present in the test medium at 4 μg/mL. Compounds tested at the highest concentration of 40 μg/mL. In this assay potency of compounds is determined as a concentration of BLIs to inhibit growth of bacteria in the presence of 4 μg/mL of […] (MPC@4).

The subject of test [2] is PAM2035 (class C). The note with it: tigemonam at 4 μg/mL, strain PAM2035, class C. The method, then:
as §1

The subject of test [3] is KP1007 (OXA-10, class D). Briefly: Tigemonam potentiation (MPC@4) by β-lactamase inhibitors. To be noted: tigemonam at 4 μg/mL; strain KP1007, OXA-10, class D; class symbols. The method, then: as §1
The subject of test [4] is KP1009 (CTX-M-15). The test is described as above. The note with it: tigemonam at 4 μg/mL; strain KP1009, class A ESBL CTX-M-15; class symbols. The method, then: as §1
Test [5] relates to KP1010 (SHV-12). The test is described as above. To be noted: tigemonam at 4 μg/mL; strain KP1010, class A ESBL SHV-12; class symbols. The method, then:
as §1

The test system of test [6] is KP1005 (CTX-M-14). The test is described as above. To be noted: tigemonam at 4 μg/mL; strain KP1005, class A ESBL CTX-M-14; class symbols. The method, then: as §1
Test [7] relates to ECL1002 (class C). The test is described as above. To be noted: tigemonam at 4 μg/mL; strain ECL1002, class C; class symbols. The method, then: as §1
The subject of test [8] is ec304 (TEM-26). The description is as above. The note with it: tigemonam at 4 μg/mL; strain ec304, class A ESBL TEM-26; class symbols. The method, then:
as §1

The test system of test [9] is ec302 (TEM-10). The test is described as above. To be noted: tigemonam at 4 μg/mL; strain ec302, class A ESBL TEM-10; class symbols. The method, then: as §1
The test system of test [10] is EC1009 (TEM-10). The description is as above. The note with it: tigemonam at 4 μg/mL; strain EC1009, class A ESBL TEM-10; class symbols. The method, then: as §1
In test [11] the test system is ec308 (SHV-5). The test is described as above. To be noted: tigemonam at 4 μg/mL; strain ec308, class A ESBL SHV-5; class symbols. The method, then:
as §1

Test [12] relates to EC1010 (CMY-6, class C). Described as above. The note with it: tigemonam at 4 μg/mL; strain EC1010, CMY-6, class C; class symbols. The method, then: as §1
Test [13] deals with KP1012 (SHV-18). The test is described as above. The note with it: tigemonam at 4 μg/mL; strain KP1012, class A ESBL SHV-18; class symbols. The method, then:
as §1

Turning to `O=C(O)[C@H]1/C(=C/CO)O[C@@H]2CC(=O)N21` [Clavulanic Acid], the “MPC4 OXA-2, KPX1001” value in [1] was 1.25 µg/mL. For the same compound, the “MPC4 PAM2035” value in [2] was greater than 40 µg/mL.

For the compound `O=C(O)CC1COC[C@H](NC(=O)Cc2cccs2)B(O)O1` (stereo partly drawn) [Compound 1, 2-((3R)-2-hydroxy-3-(2-(thiophen-2-yl)acetamido)-1,5,2-dioxaborepan-7-yl)acetic acid], the “MPC4 OXA-10, KP1007” value in [3] is “Y (Y = MPC@4 of 2 μg/mL to 10 μg/mL.)”. The “MPC4 CTX-M-15 KP1009” value in test [4] is listed as “Y (Y = MPC@4 of 2 μg/mL to 10 μg/mL.)”. Also, the “MPC4 SHV-12 KP1010” value in test [5] was “X (X = MPC@4 of less than 2 μg/mL.)”. Also, in [1] (class symbols), the “MPC4 OXA-2, KPX1001” value is listed as “X (X = MPC@4 of less than 2 μg/mL.)”. Besides, the “MPC4 CTX-M-14 KP1005” value in test [6] was “Y (Y = MPC@4 of 2 μg/mL to 10 μg/mL.)”. For the same compound, the “MPC4 ECL1002” value in test [7] is “Y (Y = MPC@4 of 2 μg/mL to 10 μg/mL.)”. The “MPC4 TEM-26 ec304” value in test [8] was “Z (Z = MPC@4 of greater than 10 μg/mL.)”. The “MPC4 TEM-10 ec302” value in test [9] was “Z (Z = MPC@4 of greater than 10 μg/mL.)”. For the same compound, the “MPC4 TEM-10 EC1009” value in test [10] was “Z (Z = MPC@4 of greater than 10 μg/mL.)”. Besides, the “MPC4 SHV-5 ec308” value in test [11] is recorded as “Y (Y = MPC@4 of 2 μg/mL to 10 μg/mL.)”. Further, in test [12], the “MPC4 CMY-6, EC1010” value is “X (X = MPC@4 of less than 2 μg/mL.)”. Moreover, the “MPC4 SHV-18 KP1012” value in test [13] is on record as “X (X = MPC@4 of less than 2 μg/mL.)”. The “MPC4 PAM2035” value in test [2] (class symbols) is on record as “Y (Y = MPC@4 of 2 μg/mL to 10 μg/mL.)”.

In the case of `CC(=O)N1CC(CC(=O)O)OB(O)[C@@H](NC(=O)Cc2cccs2)C1` (stereo partly drawn) [Compound 10, 2-((3R)-5-acetyl-2-hydroxy-3-(2-(thiophen-2-yl)acetamido)-1,5,2-oxazaborepan-7-yl)acetic acid], the “MPC4 OXA-10, KP1007” value in [3] is on record as “X (X = MPC@4 of less than 2 μg/mL.)”. Besides, in test [4], the “MPC4 CTX-M-15 KP1009” value was “Y (Y = MPC@4 of 2 μg/mL to 10 μg/mL.)”. In addition, in [5], the “MPC4 SHV-12 KP1010” value is “X (X = MPC@4 of less than 2 μg/mL.)”. In test [6], the “MPC4 CTX-M-14 KP1005” value is “Y (Y = MPC@4 of 2 μg/mL to 10 μg/mL.)”. In addition, in test [7], the “MPC4 ECL1002” value is given as “Y (Y = MPC@4 of 2 μg/mL to 10 μg/mL.)”. Besides, the “MPC4 TEM-10 ec302” value in [9] is “Z (Z = MPC@4 of greater than 10 μg/mL.)”. Further, the “MPC4 SHV-5 ec308” value in test [11] was “Y (Y = MPC@4 of 2 μg/mL to 10 μg/mL.)”. Moreover, the “MPC4 CMY-6, EC1010” value in [12] is recorded as “Y (Y = MPC@4 of 2 μg/mL to 10 μg/mL.)”.

Turning to `COC(=O)N1CC(CC(=O)O)OB(O)[C@@H](NC(=O)Cc2cccs2)C1` (stereo partly shown) [Compound 45], the “MPC4 OXA-10, KP1007” value in [3] was “X (X = MPC@4 of less than 2 μg/mL.)”. Besides, the “MPC4 CTX-M-15 KP1009” value in [4] is on record as “Y (Y = MPC@4 of 2 μg/mL to 10 μg/mL.)”. In addition, in test [5], the “MPC4 SHV-12 KP1010” value is listed as “X (X = MPC@4 of less than 2 μg/mL.)”. In addition, the “MPC4 CTX-M-14 KP1005” value in test [6] was “Y (Y = MPC@4 of 2 μg/mL to 10 μg/mL.)”. Also, in test [9], the “MPC4 TEM-10 ec302” value is listed as “Z (Z = MPC@4 of greater than 10 μg/mL.)”. Besides, in test [11], the “MPC4 SHV-5 ec308” value was “Y (Y = MPC@4 of 2 μg/mL to 10 μg/mL.)”.

As to `C[C@]1(Cn2ccnn2)[C@H](C(=O)O)N2C(=O)C[C@H]2S1(=O)=O` [Tazobactam], the “MPC4 OXA-2, KPX1001” value in [1] turned out to be 40 µg/mL. In test [2], the “MPC4 PAM2035” value worked out at 5 µg/mL.
